The target in the first experiment is T1, Muscarinic acetylcholine receptor M2 (Homo sapiens, UniProt P08172). Note: in other assays of this panel Not Active means under 50% inhibition at 10 µM.
T1 sequence (P08172 whole entry): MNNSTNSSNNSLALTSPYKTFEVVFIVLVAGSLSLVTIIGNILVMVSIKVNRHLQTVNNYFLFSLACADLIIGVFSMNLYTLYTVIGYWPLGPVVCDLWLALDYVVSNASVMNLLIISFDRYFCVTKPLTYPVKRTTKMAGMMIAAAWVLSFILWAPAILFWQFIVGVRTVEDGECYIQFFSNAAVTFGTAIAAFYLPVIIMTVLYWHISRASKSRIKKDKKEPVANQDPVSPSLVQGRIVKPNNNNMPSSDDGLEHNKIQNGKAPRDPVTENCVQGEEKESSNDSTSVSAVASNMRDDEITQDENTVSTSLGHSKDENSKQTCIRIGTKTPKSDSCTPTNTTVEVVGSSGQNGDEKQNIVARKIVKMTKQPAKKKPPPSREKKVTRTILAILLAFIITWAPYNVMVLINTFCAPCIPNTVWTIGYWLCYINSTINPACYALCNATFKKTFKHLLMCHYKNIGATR
Assay: not given
The class given is cell membranes, CHO-K1, Membrane. The note with it: cho-k1.
Sequence of Tyrosine-protein kinase Lck (P06239 whole entry): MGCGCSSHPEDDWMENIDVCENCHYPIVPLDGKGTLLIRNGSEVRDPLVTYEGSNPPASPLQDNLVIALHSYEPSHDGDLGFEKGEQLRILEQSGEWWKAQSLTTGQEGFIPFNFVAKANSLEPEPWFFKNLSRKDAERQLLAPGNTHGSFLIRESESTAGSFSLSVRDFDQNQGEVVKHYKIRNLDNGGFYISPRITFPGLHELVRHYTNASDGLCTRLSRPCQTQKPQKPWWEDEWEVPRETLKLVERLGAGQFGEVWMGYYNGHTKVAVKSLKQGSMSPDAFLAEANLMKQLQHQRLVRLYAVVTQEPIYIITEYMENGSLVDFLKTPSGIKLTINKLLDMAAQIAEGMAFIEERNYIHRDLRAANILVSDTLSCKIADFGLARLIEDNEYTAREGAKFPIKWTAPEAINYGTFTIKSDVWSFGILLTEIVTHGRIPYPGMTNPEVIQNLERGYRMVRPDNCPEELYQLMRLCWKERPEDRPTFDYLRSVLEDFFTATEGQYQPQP
Sequence of C-C chemokine receptor type 2 (P41597 whole entry): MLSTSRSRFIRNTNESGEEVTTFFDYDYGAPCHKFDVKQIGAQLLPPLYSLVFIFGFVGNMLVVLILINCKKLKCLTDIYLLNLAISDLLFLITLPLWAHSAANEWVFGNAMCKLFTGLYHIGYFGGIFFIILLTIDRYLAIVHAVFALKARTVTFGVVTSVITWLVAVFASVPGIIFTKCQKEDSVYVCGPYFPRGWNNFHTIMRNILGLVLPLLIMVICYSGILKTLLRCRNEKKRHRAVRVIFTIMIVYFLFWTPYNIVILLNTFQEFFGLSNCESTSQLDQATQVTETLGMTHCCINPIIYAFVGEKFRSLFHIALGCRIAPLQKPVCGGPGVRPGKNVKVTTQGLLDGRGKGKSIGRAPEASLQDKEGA
As to `CCOC(=O)[C@H](CCc1ccccc1)N[C@@H](C)C(=O)N1[C@H](C(=O)O)C[C@@H]2CCC[C@@H]21`, the half-inhibitory concentration (IC50) entry is on record as “Not Active”.

As for `NCCCC[C@H](N[C@@H](CCc1ccccc1)C(=O)O)C(=O)N1CCC[C@H]1C(=O)O` [LISINOPRIL ANHYDROUS], the IC50 entry is “Not Active”.

`Cc1ccc(C(=O)C(C)CN2CCCCC2)cc1` (stereo unspecified) [TOLPERISONE]: the IC50 result was “Not Active”.

In the case of IVERMECTIN, the IC50 entry is “Not Active” and the Ki entry is on record as “Not Active”.

Tested on in another experiment: not listed separately
The experiment in a line: DRUGMATRIX: Interleukin IL-1 radioligand binding (ligand: [125I] interleukin 1beta). The class given is cell membranes, Membrane. Particulars: nih3t3; Not Active = under 50% inhibition at 10 µM.
With `CCOC(=O)[C@H](CCc1ccccc1)N[C@@H](C)C(=O)N1[C@H](C(=O)O)C[C@@H]2CCC[C@@H]21`, the concentration for half-maximal inhibition (IC50) result is on record as “Not Active” and the Ki entry is “Not Active”.

Turning to `NCCCC[C@H](N[C@@H](CCc1ccccc1)C(=O)O)C(=O)N1CCC[C@H]1C(=O)O` [LISINOPRIL ANHYDROUS], the half-maximal inhibitory concentration (IC50) result is listed as “Not Active” and the Ki result is recorded as “Not Active”.

As for `Cc1ccc(C(=O)C(C)CN2CCCCC2)cc1` (stereo unspecified) [TOLPERISONE], the IC50 entry was “Not Active” and the Ki result was “Not Active”.

As for IVERMECTIN, the IC50 result is listed as “Not Active” and the Ki entry is “Not Active”.

The target in the next experiment is Carbonic anhydrase 2 (Homo sapiens, UniProt P00918). The experiment in a line: DRUGMATRIX: Carbonic Anhydrase II enzyme inhibition (substrate: 4-Nitrophenyl acetate (4-NPA)). Particulars: erythrocyte; Not Active = under 50% inhibition at 10 µM. It is filed as tissue-based, Erythrocyte.
As for `CCOC(=O)[C@H](CCc1ccccc1)N[C@@H](C)C(=O)N1[C@H](C(=O)O)C[C@@H]2CCC[C@@H]21`, the IC50 result is “Not Active”.

Regarding `NCCCC[C@H](N[C@@H](CCc1ccccc1)C(=O)O)C(=O)N1CCC[C@H]1C(=O)O` [LISINOPRIL ANHYDROUS], the IC50 entry is listed as “Not Active”.

For the molecule `Cc1ccc(C(=O)C(C)CN2CCCCC2)cc1` (stereo unspecified) [TOLPERISONE], the IC50 entry is given as “Not Active”.

On to IVERMECTIN, for which the IC50 entry is on record as “Not Active” and the Ki entry is “Not Active”.

In another experiment the target is T2, Amine oxidase [flavin-containing] A (Homo sapiens, UniProt P21397).
T2 sequence (P21397 whole entry): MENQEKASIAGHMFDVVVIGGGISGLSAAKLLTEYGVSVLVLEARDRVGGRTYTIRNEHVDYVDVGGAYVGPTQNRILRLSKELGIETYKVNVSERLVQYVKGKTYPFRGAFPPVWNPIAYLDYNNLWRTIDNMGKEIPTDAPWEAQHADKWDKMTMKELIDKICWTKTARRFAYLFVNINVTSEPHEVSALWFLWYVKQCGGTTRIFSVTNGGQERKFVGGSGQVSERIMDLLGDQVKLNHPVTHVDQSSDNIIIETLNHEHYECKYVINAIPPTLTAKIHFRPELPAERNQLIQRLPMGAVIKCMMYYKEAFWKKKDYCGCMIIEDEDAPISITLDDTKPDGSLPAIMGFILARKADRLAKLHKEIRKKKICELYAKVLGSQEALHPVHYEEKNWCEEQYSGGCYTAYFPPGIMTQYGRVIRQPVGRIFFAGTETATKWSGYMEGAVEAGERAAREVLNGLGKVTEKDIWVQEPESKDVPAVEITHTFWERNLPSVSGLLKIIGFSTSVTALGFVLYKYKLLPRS
The experiment can be described thus: DRUGMATRIX: Monoamine Oxidase MAO-A enzyme inhibition (substrate: Kynuramine). On the set-up: species or system BTI-TN-5B1-4. Particulars: bti-tn-5b1-4; Not Active = under 50% inhibition at 10 µM.
As for `CCOC(=O)[C@H](CCc1ccccc1)N[C@@H](C)C(=O)N1[C@H](C(=O)O)C[C@@H]2CCC[C@@H]21`, the IC50 result is “Not Active”.

As for `NCCCC[C@H](N[C@@H](CCc1ccccc1)C(=O)O)C(=O)N1CCC[C@H]1C(=O)O` [LISINOPRIL ANHYDROUS], the IC50 result is “Not Active”.

As to `Cc1ccc(C(=O)C(C)CN2CCCCC2)cc1` (stereo unspecified) [TOLPERISONE], the IC50 entry is “Not Active”.

Take IVERMECTIN: the IC50 entry is on record as “Not Active” and the Ki entry was “Not Active”.

For the next experiment, the target named is 5-hydroxytryptamine receptor 4 (Cavia porcellus, UniProt O70528). Note: in other assays of this panel Not Active means under 50% inhibition at 10 µM.
Sequence of 5-hydroxytryptamine receptor 4 (O70528 whole entry): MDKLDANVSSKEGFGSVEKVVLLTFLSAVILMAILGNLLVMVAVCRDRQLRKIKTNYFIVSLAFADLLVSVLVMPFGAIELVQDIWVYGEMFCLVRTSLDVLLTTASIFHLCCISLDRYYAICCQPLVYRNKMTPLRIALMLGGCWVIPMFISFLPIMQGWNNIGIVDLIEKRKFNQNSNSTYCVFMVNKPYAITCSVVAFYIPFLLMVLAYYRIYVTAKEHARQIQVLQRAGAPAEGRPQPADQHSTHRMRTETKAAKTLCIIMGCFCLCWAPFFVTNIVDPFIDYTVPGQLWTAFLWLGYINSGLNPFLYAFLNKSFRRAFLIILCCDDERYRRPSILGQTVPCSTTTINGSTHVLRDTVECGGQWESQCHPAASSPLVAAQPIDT
Assay: not given
The class given is cell membranes, Dunkin-Hartley, Striatum, Membrane.
Details: not given
For `CCOC(=O)[C@H](CCc1ccccc1)N[C@@H](C)C(=O)N1[C@H](C(=O)O)C[C@@H]2CCC[C@@H]21`, the 50% inhibitory concentration (IC50) result is “Not Active”.

Turning to `NCCCC[C@H](N[C@@H](CCc1ccccc1)C(=O)O)C(=O)N1CCC[C@H]1C(=O)O` [LISINOPRIL ANHYDROUS], the IC50 result is on record as “Not Active”.

As for `Cc1ccc(C(=O)C(C)CN2CCCCC2)cc1` (stereo unspecified) [TOLPERISONE], the IC50 result is “Not Active”.

Consider IVERMECTIN, for which the IC50 entry was “Not Active” and the Ki result is “Not Active”.

The next experiment has as its target C-C chemokine receptor type 2 (Homo sapiens, UniProt P41597). Note: in other assays of this panel Not Active means under 50% inhibition at 10 µM.
Assay: not given
It is filed as cell membranes, CHO-K1, Membrane. Particulars: cho-k1.
As to `CCOC(=O)[C@H](CCc1ccccc1)N[C@@H](C)C(=O)N1[C@H](C(=O)O)C[C@@H]2CCC[C@@H]21`, the IC50 entry was “Not Active”.

With `NCCCC[C@H](N[C@@H](CCc1ccccc1)C(=O)O)C(=O)N1CCC[C@H]1C(=O)O` [LISINOPRIL ANHYDROUS], the IC50 entry is on record as “Not Active”.

`Cc1ccc(C(=O)C(C)CN2CCCCC2)cc1` (stereo unspecified) [TOLPERISONE]: the IC50 result is on record as “Not Active”.

For the molecule IVERMECTIN, the IC50 entry is given as “Not Active” and the Ki result is on record as “Not Active”.

The target of a further experiment is Matrix metalloproteinase-9 (Homo sapiens, UniProt P14780).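 Note: inhibition of isolated MMP-9 enzyme activity toward a synthetic peptide substrate, from the DrugMatrix protease screening panel; in other assays of this panel Not Active means under 50% inhibition at 10 µM.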
Sequence of Matrix metalloproteinase-9 (P14780 whole entry): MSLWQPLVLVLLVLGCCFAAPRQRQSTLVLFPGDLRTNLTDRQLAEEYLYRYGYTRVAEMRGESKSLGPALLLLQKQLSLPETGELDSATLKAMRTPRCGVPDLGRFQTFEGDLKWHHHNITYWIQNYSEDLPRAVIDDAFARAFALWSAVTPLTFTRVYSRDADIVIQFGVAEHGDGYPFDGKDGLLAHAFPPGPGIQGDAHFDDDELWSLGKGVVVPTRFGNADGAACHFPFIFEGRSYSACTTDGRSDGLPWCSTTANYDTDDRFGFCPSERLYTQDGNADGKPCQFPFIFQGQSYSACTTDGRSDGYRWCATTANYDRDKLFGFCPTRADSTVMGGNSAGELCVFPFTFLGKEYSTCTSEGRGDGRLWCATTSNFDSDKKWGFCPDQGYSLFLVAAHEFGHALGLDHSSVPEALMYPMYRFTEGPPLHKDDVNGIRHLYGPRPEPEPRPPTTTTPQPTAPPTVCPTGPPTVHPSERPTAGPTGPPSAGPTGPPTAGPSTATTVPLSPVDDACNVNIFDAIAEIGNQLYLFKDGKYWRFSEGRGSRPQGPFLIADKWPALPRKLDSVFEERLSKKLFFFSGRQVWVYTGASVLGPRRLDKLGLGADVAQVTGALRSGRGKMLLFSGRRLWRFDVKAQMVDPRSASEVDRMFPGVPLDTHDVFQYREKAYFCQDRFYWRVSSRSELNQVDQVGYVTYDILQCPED
Assay: not given
Details: not given
It is filed as cell-based.
`CCOC(=O)[C@H](CCc1ccccc1)N[C@@H](C)C(=O)N1[C@H](C(=O)O)C[C@@H]2CCC[C@@H]21`: the IC50 result is given as “Not Active”.

`NCCCC[C@H](N[C@@H](CCc1ccccc1)C(=O)O)C(=O)N1CCC[C@H]1C(=O)O` [LISINOPRIL ANHYDROUS]: the IC50 result was “Not Active”.

Take `Cc1ccc(C(=O)C(C)CN2CCCCC2)cc1` (stereo unspecified) [TOLPERISONE]: the IC50 entry is “Not Active”.

Turning to IVERMECTIN, the IC50 result was “Not Active” and the Ki result is listed as “Not Active”.

The next experiment concerns the target T3, Angiotensin-converting enzyme (Oryctolagus cuniculus, UniProt P12822).
T3 sequence (P12822 whole entry): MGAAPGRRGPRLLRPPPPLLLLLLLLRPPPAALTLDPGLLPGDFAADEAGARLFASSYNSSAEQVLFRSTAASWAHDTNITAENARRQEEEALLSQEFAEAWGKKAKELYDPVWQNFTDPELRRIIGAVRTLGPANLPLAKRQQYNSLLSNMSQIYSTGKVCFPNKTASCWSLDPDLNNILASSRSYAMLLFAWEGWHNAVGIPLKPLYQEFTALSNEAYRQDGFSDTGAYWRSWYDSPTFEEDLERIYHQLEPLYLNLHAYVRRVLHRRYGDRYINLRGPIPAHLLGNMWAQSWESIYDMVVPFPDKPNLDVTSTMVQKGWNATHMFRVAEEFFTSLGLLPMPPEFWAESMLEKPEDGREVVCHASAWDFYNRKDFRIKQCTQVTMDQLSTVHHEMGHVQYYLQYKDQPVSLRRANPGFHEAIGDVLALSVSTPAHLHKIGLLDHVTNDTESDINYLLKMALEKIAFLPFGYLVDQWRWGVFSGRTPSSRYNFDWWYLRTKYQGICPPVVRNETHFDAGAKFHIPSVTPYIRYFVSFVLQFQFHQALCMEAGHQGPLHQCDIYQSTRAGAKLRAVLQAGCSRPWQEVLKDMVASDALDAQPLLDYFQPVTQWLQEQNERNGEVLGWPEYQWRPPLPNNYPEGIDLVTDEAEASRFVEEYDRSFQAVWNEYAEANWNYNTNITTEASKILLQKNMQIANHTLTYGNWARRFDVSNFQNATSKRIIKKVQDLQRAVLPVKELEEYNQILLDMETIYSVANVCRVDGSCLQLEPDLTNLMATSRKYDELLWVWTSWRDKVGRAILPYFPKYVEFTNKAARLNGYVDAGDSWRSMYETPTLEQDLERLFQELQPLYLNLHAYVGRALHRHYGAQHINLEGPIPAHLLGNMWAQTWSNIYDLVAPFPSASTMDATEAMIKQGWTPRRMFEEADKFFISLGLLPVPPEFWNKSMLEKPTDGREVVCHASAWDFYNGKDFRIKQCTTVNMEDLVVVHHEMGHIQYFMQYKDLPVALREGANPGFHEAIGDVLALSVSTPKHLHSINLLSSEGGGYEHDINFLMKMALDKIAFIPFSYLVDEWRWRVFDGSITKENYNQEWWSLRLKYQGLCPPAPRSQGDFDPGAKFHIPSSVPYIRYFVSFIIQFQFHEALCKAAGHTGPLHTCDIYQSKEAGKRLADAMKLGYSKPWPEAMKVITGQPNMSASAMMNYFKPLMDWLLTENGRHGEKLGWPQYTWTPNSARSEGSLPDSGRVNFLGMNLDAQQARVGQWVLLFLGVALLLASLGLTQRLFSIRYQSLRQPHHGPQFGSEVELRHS
The experiment can be described thus: biochemical. The class given is tissue-based, Lung.
Details: not given
With `CCOC(=O)[C@H](CCc1ccccc1)N[C@@H](C)C(=O)N1[C@H](C(=O)O)C[C@@H]2CCC[C@@H]21`, the IC50 result is recorded as “Not Active”.

Regarding `Cc1ccc(C(=O)C(C)CN2CCCCC2)cc1` (stereo unspecified) [TOLPERISONE], the IC50 entry is on record as “Not Active”.

With IVERMECTIN, the IC50 entry was “Not Active” and the Ki result is “Not Active”.

Staying with this experiment, now noted: read-out: IC50.
Turning to `NCCCC[C@H](N[C@@H](CCc1ccccc1)C(=O)O)C(=O)N1CCC[C@H]1C(=O)O` [LISINOPRIL ANHYDROUS], the IC50 came to 6.04 nM.

Tested on in another experiment: not listed separately
The experiment in a line: DRUGMATRIX: Phosphodiesterase PDE3 enzyme inhibition (substrate: [3H]cAMP + cAMP). It is filed as tissue-based, Homo sapiens. The note with it: platelet; Not Active = under 50% inhibition at 10 µM.
Turning to `CCOC(=O)[C@H](CCc1ccccc1)N[C@@H](C)C(=O)N1[C@H](C(=O)O)C[C@@H]2CCC[C@@H]21`, the IC50 result is “Not Active” and the Ki result was “Not Active”.

As to `NCCCC[C@H](N[C@@H](CCc1ccccc1)C(=O)O)C(=O)N1CCC[C@H]1C(=O)O` [LISINOPRIL ANHYDROUS], the 50% inhibitory concentration (IC50) entry is on record as “Not Active” and the Ki entry is “Not Active”.

With `Cc1ccc(C(=O)C(C)CN2CCCCC2)cc1` (stereo unspecified) [TOLPERISONE], the IC50 result is “Not Active” and the Ki entry is on record as “Not Active”.

For the molecule IVERMECTIN, the IC50 entry is recorded as “Not Active” and the Ki result was “Not Active”.

Another experiment has as its target Tyrosine-protein kinase Lck (Homo sapiens, UniProt P06239). The experiment in a line: DRUGMATRIX: Protein Tyrosine Kinase, LCK enzyme inhibition (substrate: Poly(Glu:Tyr)). It is filed as cell-based, Insect cells. Particulars: insect cells; Not Active = under 50% inhibition at 10 µM.
Take `CCOC(=O)[C@H](CCc1ccccc1)N[C@@H](C)C(=O)N1[C@H](C(=O)O)C[C@@H]2CCC[C@@H]21`: the IC50 entry is “Not Active”.

Regarding `NCCCC[C@H](N[C@@H](CCc1ccccc1)C(=O)O)C(=O)N1CCC[C@H]1C(=O)O` [LISINOPRIL ANHYDROUS], the IC50 result is “Not Active”.

For `Cc1ccc(C(=O)C(C)CN2CCCCC2)cc1` (stereo unspecified) [TOLPERISONE], the IC50 entry is recorded as “Not Active”.

Regarding IVERMECTIN, the IC50 result is listed as “Not Active” and the Ki result is “Not Active”.

For the origin of these results see ChEMBL document CHEMBL1909046, “DrugMatrix in vitro pharmacology data”.
